Measurements: patent US12091405B2, “Substituted pyrazole compounds as indoleamine 2,3-dioxygenase inhibitors” (Merck Sharp & Dohme LLC, priority 2018, dated 2024)

target: IDO1 (Homo sapiens, UniProt P14902); assay: IDO1 Cellular Assay in HeLa Cells Stimulated with IFNγ; type: cell-based; settings: IFNγ 100 ng/mL, 300 uM L-tryptophan, about 48 hours, fluorescence readout, read-out: IDO1 HELA Cell Assay, IC50
Procedure: Biological Assays IDO1 Cellular Assay in HeLa Cells Stimulated with IFNγ
HeLa cells were cultured in complete HeLa culture medium (90% EMEM, 10% heat-inactivated fetal bovine serum) and expanded to about 1×10^9 cells. The cells were then collected and frozen down at 1×10^7 cells/vial in 1 mL frozen medium (90% complete HeLa culture medium, 10% DMSO).
Compounds to be tested were serially diluted in ten 3-fold steps in DMSO starting from 10 mM DMSO stocks in Echo low volume plate(s). Compound dilutions or DMSO alone were then dispensed from the dilution plate(s) into Greiner black 384-well assay plate(s) (catalog #781086, 50 nL/well) using an Echo 550 acoustic liquid handler (Labcyte).
Frozen HeLa cells were thawed and transferred into HeLa assay medium (99% complete HeLa culture medium, 1% Pen/Strep) with 20 mL medium/vial of cells. The cells were spun down at 250 g in a table top centrifuge for 5 min and suspended in same volume of HeLa assay medium. The cells were then counted and adjusted to a density of 2×10^5 cells/mL in HeLa assay medium. Sterile L-tryptophan were added to the cells with final concentration of 300 uM L-tryptophan. A small aliquot (2 mL/plate) of HeLa cells were set aside and were not treated with IFNγ, to serve as the Max-E control.
HeLa cells with and without IFNγ were dispensed to the respective wells of 384-well assay plates containing the compounds. The plates were incubated for about 48 hours at a 37° C., 5% CO2 incubator. Afterwards, 12 μL of 0.5 M methyl isonipecotate in dimethyl sulfoxide were added into each well and the plates were sealed and incubated at 37° C. without CO2 overnight. The plates were centrifuged for 1 min at 200×g. The resulting fluorescence was measured in a Spectramax plate reader (Molecular Devices) with a 400 nm excitation filter and a 510 nm emission filter.
The fluorescence intensity of each well was corrected for the background observed in wells with non-IFNγ-treated cells and was expressed as a fraction of the intensity observed in wells of IFNγ-treated cells and DMSO only. Potencies were calculated by linear least squares fit to the four parameter logistic IC50 equation.
Compounds disclosed herein generally have IC50 of about 0.1 nM to about 20,000 nM, or more specifically, about 1 nM to about 10,000 nM, or more specifically, about 5 nM to about 5,000 nM, or more specifically, about 10 nM to about 1,000 nM, or still more specifically, about 10 nM to about 500 nM.

Chain of IDO1 (P14902 whole entry): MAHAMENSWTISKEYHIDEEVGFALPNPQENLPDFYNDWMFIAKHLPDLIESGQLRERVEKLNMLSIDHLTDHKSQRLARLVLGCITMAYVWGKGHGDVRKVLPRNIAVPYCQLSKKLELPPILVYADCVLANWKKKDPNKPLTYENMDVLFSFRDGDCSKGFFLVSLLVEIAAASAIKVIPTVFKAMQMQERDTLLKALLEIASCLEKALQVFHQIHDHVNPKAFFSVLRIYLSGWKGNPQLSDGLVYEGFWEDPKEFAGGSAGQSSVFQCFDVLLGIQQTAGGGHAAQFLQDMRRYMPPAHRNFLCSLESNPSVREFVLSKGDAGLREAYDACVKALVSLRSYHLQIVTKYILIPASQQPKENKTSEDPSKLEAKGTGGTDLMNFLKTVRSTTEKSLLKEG

SMILES	IC50
C[C@@H]1CN(C(=O)c2nn(CC(=O)N3CCC(c4ccccc4OC(F)(F)F)CC3)c3c2CCC3)C[C@H](C)O1 [Example 163, 2-{3-[(2R,6S)-2,6-dimethylmorpholine-4-carbonyl]-5,6-dihydrocyclopenta[c]pyrazol-1(4H)-yl}-1-{4-[2-(trifluoromethoxy)phenyl]piperidin-1-yl}ethan-1-one]	177 nM
C[C@@H]1CN(C(=O)c2nn(CC(=O)N3CCC(c4ccc5c(c4)CCO5)CC3)c3c2CCC3)C[C@H](C)O1 [Example 93, 1-[4-(2,3-dihydro-1-benzofuran-5-yl)piperidin-1-yl]-2-{3-[(2R,6S)-2,6-dimethylmorpholine-4-carbonyl]-5,6-dihydrocyclopenta[c]pyrazol-1(4H)-yl}ethan-1-one]	17.8 nM
Cc1cc(F)ccc1C1CCN(C(=O)Cn2nc(C(=O)N3CC[C@@H](O)[C@@H](F)C3)c3c2CCC3)CC1 [Example 55, 1-(4-(4-fluoro-2-methylphenyl)piperidin-1-yl)-2-(3-((3S,4R)-3-fluoro-4-hydroxypiperidine-1-carbonyl)-5,6-dihydrocyclopenta[c]pyrazol-1(4H)-yl)ethanone]	166 nM
Cc1cccc(C2CCN(C(=O)Cn3nc(C(=O)N4CC[C@H](O)[C@H](F)C4)c4c3C[C@@H]3C[C@H]43)CC2)c1C [Example 29, 1-[4-(2,3-dimethylphenyl)piperidin-1-yl]-2-{(3bS,4aS)-3-[(3R,4S)-3-fluoro-4-hydroxypiperidine-1-carbonyl]-3b,4,4a,5-tetrahydro-1H-cyclopropa[3,4]cyclopenta[1,2-c]pyrazol-1-yl}ethan-1-one]	54.2 nM
C[C@@H]1CN(C(=O)c2nn(CC(=O)N3CCC(c4cc(F)c(Cl)c(F)c4)CC3)c3c2CCC3)C[C@H](C)O1 [Example 101, 1-[4-(4-chloro-3,5-difluorophenyl)piperidin-1-yl]-2-{3-[(2R,6S)-2,6-dimethylmorpholine-4-carbonyl]-5,6-dihydrocyclopenta[c]pyrazol-1(4H)-yl}ethan-1-one]	27.9 nM
Cc1cccc(C2CCN(C(=O)Cn3nc(C(=O)N4CC[C@@H](O)[C@H](F)C4)c4c3CCC4)CC2)c1C [Example 45, 1-(4-(2,3-dimethylphenyl)piperidin-1-yl)-2-(3-((3R,4R)-3-fluoro-4-hydroxypiperidine-1-carbonyl)-5,6dihydrocyclopenta[c]pyrazol-1(4H)-yl)ethanone]	8.1 nM
COc1c(F)cc(C2CCN(C(=O)Cn3nc(C(=O)N4C[C@@H](C)O[C@@H](C)C4)c4c3CCC4)CC2)cc1F [Example 134, 1-[4-(3,5-difluoro-4-methoxyphenyl)piperidin-1-yl]-2-{3-[(2R,6S)-2,6-dimethylmorpholine-4-carbonyl]-5,6-dihydrocyclopenta[c]pyrazol-1(4H)-yl}ethan-1-one]	82.1 nM
Cc1c(Cl)cc(Cl)cc1C1CCN(C(=O)Cn2nc(C(=O)N3C[C@@H](C)O[C@@H](C)C3)c3c2CCC3)CC1 [Example 122, 1-[4-(3,5-dichloro-2-methylphenyl)piperidin-1-yl]-2-{3-[(2R,6S)-2,6-dimethylmorpholine-4-carbonyl]-5,6-dihydrocyclopenta[c]pyrazol-1(4H)-yl}ethan-1-one]	54.5 nM
C[C@@H]1CN(C(=O)c2nn(CC(=O)N3CCC(c4cccc(F)c4C(F)(F)F)CC3)c3c2CCC3)C[C@H](C)O1 [Example 118, 2-{3-[(2R,6S)-2,6-dimethylmorpholine-4-carbonyl]-5,6-dihydrocyclopenta[c]pyrazol-1(4H)-yl}-1-{4-[3-fluoro-2-(trifluoromethyl)phenyl]piperidin-1-yl}ethan-1-one]	49.8 nM
C[C@@H]1CN(C(=O)c2nn(CC(=O)N3CCC(c4cc(F)c(F)c(F)c4Cl)CC3)c3c2CCC3)C[C@H](C)O1 [Example 132, 1-[4-(2-chloro-3,4,5-trifluorophenyl)piperidin-1-yl]-2-{3-[(2R,6S)-2,6-dimethylmorpholine-4-carbonyl]-5,6-dihydrocyclopenta[c]pyrazol-1(4H)-yl}ethan-1-one]	80.2 nM
COc1c(F)cc(C2CCN(C(=O)Cn3nc(C(=O)N4C[C@@H](C)O[C@@H](C)C4)c4c3CCC4)CC2)cc1Cl [Example 95, 1-[4-(3-chloro-5-fluoro-4-methoxyphenyl)piperidin-1-yl]-2-{3-[(2R,6S)-2,6-dimethylmorpholine-4-carbonyl]-5,6-dihydrocyclopenta[c]pyrazol-1(4H)-yl}ethan-1-one]	19.3 nM
O=C(Cn1nc(C(=O)N2CCC(O)CC2)c2c1CCC2)N1CCC(c2cccc3c2CC3)CC1 [Example 16, 1-(4-(bicyclo[4.2.0]octa-1(6),2,4-trien-2-yl)piperidin-1-yl)-2-(3-(4-hydroxypiperidine-1-carbonyl)-5,6-dihydrocyclopenta[c]pyrazol-1(4H)-yl)ethanone]	25 nM
C[C@@H]1CN(C(=O)c2nn(CC(=O)N3CCC(c4cc(F)cc(C(F)(F)F)c4)CC3)c3c2CCC3)C[C@H](C)O1 [Example 141, 2-{3-[(2R,6S)-2,6-dimethylmorpholine-4-carbonyl]-5,6-dihydrocyclopenta[c]pyrazol-1(4H)-yl}-1-{4-[3-fluoro-5-(trifluoromethyl)phenyl]piperidin-1-yl}ethan-1-one]	97.4 nM

Results, then the compound that gave them:

IC50	SMILES
52.1 nM	Cc1ccc(F)c(C2CCN(C(=O)Cn3nc(C(=O)N4C[C@@H](C)O[C@@H](C)C4)c4c3CCC4)CC2)c1 [Example 119, 2-{3-[(2R,6S)-2,6-dimethylmorpholine-4-carbonyl]-5,6-dihydrocyclopenta[c]pyrazol-1(4H)-yl}-1-[4-(2-fluoro-5-methylphenyl)piperidin-1-yl]ethan-1-one]
40.6 nM	C[C@@H]1CN(C(=O)c2nn(CC(=O)N3CCC(c4ccc(Cl)c(F)c4)CC3)c3c2CCC3)C[C@H](C)O1 [Example 112, 1-[4-(4-chloro-3-fluorophenyl)piperidin-1-yl]-2-{3-[(2R,6S)-2,6-dimethylmorpholine-4-carbonyl]-5,6-dihydrocyclopenta[c]pyrazol-1(4H)-yl}ethan-1-one]
10.3 nM	Cc1c(C2CCN(C(=O)Cn3nc(C(=O)N4C[C@@H](C)O[C@@H](C)C4)c4c3CCC4)CC2)ccc(F)c1F [Example 174, 1-[4-(3,4-difluoro-2-methylphenyl)piperidin-1-yl]-2-{3-[(2R,6S)-2,6-dimethylmorpholine-4-carbonyl]-5,6-dihydrocyclopenta[c]pyrazol-1(4H)-yl}ethan-1-one]
48.5 nM	COc1c(F)cccc1C1CCN(C(=O)Cn2nc(C(=O)N3C[C@@H](C)O[C@@H](C)C3)c3c2CCC3)CC1 [Example 115, 2-{3-[(2R,6S)-2,6-dimethylmorpholine-4-carbonyl]-5,6-dihydrocyclopenta[c]pyrazol-1(4H)-yl}-1-[4-(3-fluoro-2-methoxyphenyl)piperidin-1-yl]ethan-1-one]
39.3 nM	COc1c(F)cc(F)cc1C1CCN(C(=O)Cn2nc(C(=O)N3C[C@@H](C)O[C@@H](C)C3)c3c2CCC3)CC1 [Example 110, 1-[4-(3,5-difluoro-2-methoxyphenyl)piperidin-1-yl]-2-{3-[(2R,6S)-2,6-dimethylmorpholine-4-carbonyl]-5,6-dihydrocyclopenta[c]pyrazol-1(4H)-yl}ethan-1-one]
85 nM	COc1ccc(C2CCN(C(=O)Cn3nc(C(=O)N4C[C@@H](C)O[C@@H](C)C4)c4c3CCC4)CC2)c(F)c1 [Example 137, 2-{3-[(2R,6S)-2,6-dimethylmorpholine-4-carbonyl]-5,6-dihydrocyclopenta[c]pyrazol-1(4H)-yl}-1-[4-(2-fluoro-4-methoxyphenyl)piperidin-1-yl] ethan-1-one]
